# Measured values: patent US20110144577A1, “HYDROPHILIC COATINGS WITH TUNABLE COMPOSITION FOR DRUG COATED BALLOON” (priority 2009, published 2011)
# Test: Solubility enhancement of zotarolimus with select excipients in PBS
# Type: physicochemical
# Conditions: n = 3
# From the text: Table 1 provides non-limiting examples of the solubility enhancement provided by excipients that can be used in accordance with the disclosed subject matter: […]
smiles,measurement,setting,value
"CO[C@H]1C[C@@H]2CC[C@@H](C)[C@@](O)(O2)C(=O)C(=O)N2CCCC[C@H]2C(=O)O[C@H]([C@H](C)C[C@@H]2CC[C@H](n3cnnn3)[C@H](OC)C2)CC(=O)[C@H](C)/C=C(\C)[C@@H](O)[C@@H](OC)C(=O)[C@H](C)C[C@H](C)/C=C/C=C/C=C/1C [Zotarolimus, zotarolimus]",solubility,"PBS with 5% w/w PEG 400, aqueous with cosolvent or surfactant or cyclodextrin, PEG 400 5% w/w in PBS",31.5 ± 3.5 µg/mL
same,solubility,"PBS with 5% w/w PEG-PE, aqueous with cosolvent or surfactant or cyclodextrin, PEG-PE 5% w/w in PBS",1020 ± 417 µg/mL
same,solubility,"PBS with 5% w/w PVP C-17, aqueous with cosolvent or surfactant or cyclodextrin, PVP C-17 5% w/w in PBS",5.6 ± 1.6 µg/mL
same,solubility,"PBS with 5% w/w Tween 20, aqueous with cosolvent or surfactant or cyclodextrin, Tween 20 5% w/w in PBS",732 ± 94.7 µg/mL
same,solubility,"PBS with 5% w/w Vitamin E TPGS, aqueous with cosolvent or surfactant or cyclodextrin, Vitamin E TPGS 5% w/w in PBS",512 ± 49.5 µg/mL
same,solubility,"PBS with 5% w/w glycerol, aqueous with cosolvent or surfactant or cyclodextrin, Glycerol 5% w/w in PBS",43.2 ± 30.1 µg/mL
same,solubility,"PBS with 5% w/w hydroxypropyl-β-cyclodextrin, aqueous with cosolvent or surfactant or cyclodextrin, Hydroxypropyl-β-cyclodextrin 5% w/w in PBS",11.6 ± 3.1 µg/mL
same,solubility,"PBS with 5% γ-cyclodextrin, aqueous with cosolvent or surfactant or cyclodextrin, 5% γ-Cyclodextrin in PBS",55.3 ± 34.3 µg/mL
